From patent publication US20260049103A1, “PEPTIDE, AND COMPOSITION THEREOF AND USE THEREOF” (WINKEY TECHNOLOGY USA INC, priority 2023, published 2026)
Non-standard residues stand in square brackets, D forms with d. *: point of attachment. Palmitoyl = CCCCCCCCCCCCCCCC(=O)*; Nle = CCCC[C@H](N)C(=O)O

Columns and labels:
[1] = test system: Human keratinocytes (HaCaT); test: Cell proliferation assay (MTT) in HaCaT cells; assay type: cell-based; settings: FIG. 6; for cell activity / proliferation of HaCaT keratinocytes: 72 h, at low concentrations (tested 6.25, 12.5, 25 ppm)
Excerpt: Thiazolyl blue (MTT), dimethyl sulfoxide (DMSO), DMEM culture medium, fetal bovine serum, and PBS.
(§1) Human keratinocytes (HaCaT) were purchased from the Kunming Cell Bank of China Center for Type Culture Collection under the Chinese Academy of Sciences.
Polypeptide group: Peptide (4), peptide (9), peptide (13) and peptide (20). The test concentrations of all the above samples were 6.25 ppm, 12.5 ppm and 25 ppm.
(§2) Blank control group: PBS.
Positive control group: 2% DMSO.
Cells in good exponential growth phase were taken. A 0.25% trypsin digestion solution was added so that digestion allowed the adherent cells to fall off, counting 1 to 4×10^5 cells/mL, which were prepared into a cell suspension.
The cell suspension was inoculated into a 96-well plate with 200 μL/well, and cultured in a constant-temperature CO2 incubator for 24 h.
After changing the medium, samples of the polypeptide groups, the blank control group and the positive control group were added at 20 μL/well respectively, and incubated in a 5% CO2 incubator at 37° C. for 72 h.
20 μL of 5 mg/mL MTT was added to each well and the incubation was continued in the 5% CO2 incubator at 37° C. for 4 h. The original solution was removed and 150 μL/well of DMSO was added. After shaking the plate on a plate shaker for 5 min, a microplate reader was used to determine the OD value of each well at a wavelength of 570 nm, and the cell viability was calculated.
Cell viability=[OD (test sample well)−OD (zero adjustment well)]/[OD (blank control well)−OD (zero adjustment well)]×100%
The MTT assay is a method of detecting cell survival and growth. The measured OD values are directly proportional to cell viability. The higher the cell viability, the larger the OD value.

[2] = test system: hyaluronidase; test: Hyaluronidase inhibition experiment; assay type: biochemical; settings: FIG. 11; for hyaluronidase inhibition rate: at 100 ppm; for inhibition of hyaluronidase activity: at the tested concentrations (50 ppm and 100 ppm)
Excerpt: Spectrophotometer, phosphate buffered saline (PBS), hyaluronic acid, and hyaluronidase.
Peptide (13) and peptide (14). The test concentrations of all the above samples were 50 ppm and 100 ppm.
The experiment was divided into four groups: blank control group A1 (PBS+hyaluronidase), enzyme-free blank control group A2 (PBS+solvent without hyaluronidase), sample group B1 (samples to be tested+hyaluronidase), and enzyme-free sample group B2 (samples to be tested+solvent without hyaluronidase). The total reaction volume of each group was the same.
According to the grouping, 100 μL of CaCl2) (2.5 mmol/L) was mixed with 500 μL of hyaluronidase (500 U/mL) or solvent without hyaluronidase, and 20 μL of the mixture was taken and shaken in a 37° C. constant temperature gas bath oscillator for 20 min. The blank control group was added with 20 μL of PBS and shaken in a 37° C. constant temperature gas bath oscillator for 20 min. The sample groups were added with 20 μL of samples at different concentrations and shaken in a 37° C. constant temperature gas bath oscillator for 20 min. The above groups were added with 40 μL of hyaluronic acid and shaken in a 37° C. constant temperature gas bath oscillator for 40 min. 10 μL of acetylacetone solution was added and shaken in a 50° C. constant temperature gas bath oscillator for 10 min, then placed in an oven at 75° C. for 40 min and at 50° C. for 10 min. After the reaction was completed and cooled, the plastic wrap was quickly removed to avoid the generation of water vapor. Then 100 μL of 96% anhydrous ethanol and 10 μL of Ehrlich reagent were added, and the absorbances were measured at 492 nm.
Hyaluronidase can decompose hyaluronic acid in the body, converting it into low-molecular-weight acidic irritant, thereby causing the release of histamine and inducing sensitive symptoms in the body. In addition, the reduction of hyaluronic acid will destroy the skin barrier function, leading to the loss of moisture inside the skin. Therefore, inhibiting the activity of hyaluronidase can achieve the effects of soothing, moisturizing and repairing the skin barrier.

[3] = test system: filaggrin (FLG); test: Filaggrin expression experiment (UV-irradiated HaCaT cells); assay type: cell-based, Human; settings: 80 mJ/cm^2 UV, 24 h, 10-50 ppm, compared with UV group, fluorescence staining, FIG. 10
Protocol: as §1
Polypeptide group: Peptide (4), peptide (9), peptide (13) and peptide (20). The test concentrations of all the above samples were 10 ppm and 50 ppm.
as §2
UV group: UV radiation with PBS.
The frozen HaCaT cells were cultured and passaged at a ratio of 1:2 to about the 5th generation, and the cells in better growth were selected as experiment subjects. The cell suspension was taken and inoculated into a 96-well plate at 10^4 cells/well, complete culture medium was added, and the mixture was cultured in a 5% CO2 incubator at 37° C. for 24 h. A UV photoaging model was established when the cells reached approximately 80% confluence. […]
After incubation, the cells were digested, grown on a cell climbing slice for 12 hours and then fixed. The cells were stained using a filaggrin (FLG) detection kit and observed under a fluorescence microscope after staining.
Filaggrin (FLG) is an important molecule that links keratin fibers in the stratum corneum of human skin. […] In this experiment, 80 mJ/cm^2 UV energy was selected for radiation to establish a skin stratum corneum cell model, and the effect of the sample on FLG expression was detected to analyze whether the peptides of the present invention can promote FLG expression.

[4] = test system: hyaluronic acid; test: Determination of hyaluronic acid content in HaCaT cells; assay type: cell-based, Human; settings: 12.5 ppm, 48 h, compared with blank control, FIG. 9
Protocol: as §1
Polypeptide group: Peptide (4), peptide (13) and peptide (20). The test concentrations of all the above samples were 12.5 ppm.
as §2
A bottle of HaCaT cells in good exponential growth phase was taken. A 0.25% trypsin digestion solution was added so that digestion allowed the adherent cells to fall off, counting 1 to 4×10^6 cells/mL, which were prepared into a cell suspension.
The cells were inoculated into a 6-well plate at 10^5 cells/well, and grouped when the cells reached approximately 80% confluence. […]
After completion of the culture, cells were scraped off using a cell scraper, and 200 μL of RIPA lysis buffer was added to extract proteins. […] The total protein concentration was quantified to 1 mg/mL using the BCA method. […] The OD value of each well was measured in sequence at 570 nm using a microplate reader within 15 min.
Hyaluronic acid is one of the main matrix ingredients of the human skin epidermis and an important component of the skin barrier. […] This experiment measured the effect of the peptide of the present invention on the hyaluronic acid content to determine whether the peptide of the invention can increase the hyaluronic acid content and thus play a role in moisturizing and anti-aging repair.

Compound | hyaluronidase inhibition rate [2] [%] | inhibition of hyaluronidase activity [2] | cell activity / proliferation of HaCaT keratinocytes [1] | hyaluronic acid content [4] | also measured
C[S+](C)[O-] [2% DMSO, dimethyl sulfoxide, reference compound] | – | – | – | – | toxic effect on HaCaT cells (cell viability) ([1]; 72 h incubation, peptides at 6.25, 12.5 and 25 ppm, compared with blank control (PBS)): had a toxic effect on HaCaT cells
Palm-Lys-Val-Lys-Leu-Tyr-NH2 (Palmitoyl-KVKLY-NH2; SMILES CCCCCCCCCCCCCCCC(=O)N[C@@H](CCCCN)C(=O)N[C@H](C(=O)N[C@@H](CCCCN)C(=O)N[C@@H](CC(C)C)C(=O)N[C@@H](Cc1ccc(O)cc1)C(N)=O)C(C)C) [peptide (13)] | 49.40 | inhibited the activity of hyaluronidase | – | – | FLG content / FLG expression [3]: optimum technical effect
Palm-Lys-Val-Lys-Leu-Tyr-OH (Palmitoyl-KVKLY-OH; SMILES CCCCCCCCCCCCCCCC(=O)N[C@@H](CCCCN)C(=O)N[C@H](C(=O)N[C@@H](CCCCN)C(=O)N[C@@H](CC(C)C)C(=O)N[C@@H](Cc1ccc(O)cc1)C(=O)O)C(C)C) [peptide (14)] | 40.96 | inhibited the activity of hyaluronidase | – | – | –
Palm-Val-Lys-Leu-Tyr-Gly-Ser-NH2 (Palmitoyl-VKLYGS-NH2; SMILES CCCCCCCCCCCCCCCC(=O)N[C@H](C(=O)N[C@@H](CCCCN)C(=O)N[C@@H](CC(C)C)C(=O)N[C@@H](Cc1ccc(O)cc1)C(=O)NCC(=O)N[C@@H](CO)C(N)=O)C(C)C) [peptide (9)] | – | – | significantly improve cell activity | – | –
Palmitoyl-G[Nle]KLY-NH2 [peptide (4)] | – | – | – | more superior technical effects | –
Palmitoyl-G[Nle]RLY-NH2 [peptide (20)] | – | – | significantly improve cell activity | more superior technical effects | –
